Where “and” joins values, the source holds several entries; their conditions need not be identical. Identical values can stand only once.

The nature of the data set: Blood-brain barrier penetration by the method of Oldendorf (radioactively marked active material, A. carotis injection, brain radioactivity after 15 seconds). The conditions noted are these: for percentage proportion of active material which has passed the blood-brain barrier, with C5: with addition of glycerol 1-pentyl ether; for percentage proportion of active material which has passed the blood-brain barrier, with C5 / percentage proportion of active material which has passed the blood-brain barrier, with C3: about 0.3 Osmol/l; for percentage proportion of active material which has passed the blood-brain barrier, with C5 / percentage proportion of active material which has passed the blood-brain barrier, without / percentage proportion of active material which has passed the blood-brain barrier, with C3: A. carotis, 15 seconds, + dissolved in inger albumin; for percentage proportion of active material which has passed the blood-brain barrier, without: without addition of a compound of the general formula; for percentage proportion of active material which has passed the blood-brain barrier, with C3: with addition of glycerol 1-propyl ether. As for the experimental part:
The effectiveness of the medicament according to the invention was tested according to the method of Oldendorf (Brain-Res., 24, 372-376 (1970)). […] In the case of the medicament according to the invention, the administration took place into the A. carotis. 15 seconds later, the experimental animal was decapitated, the brain removed and the radioactivity bound therein determined. […] The numerical values give the percentage proportion of active material which has passed the blood-brain barrier. As comparative substance, there was employed an isotonic buffer solution. The compound of the general formula was present in iso-osmolar concentration, which corresponds to about 0.3 Osmol/ 1. in the solution administered.
In the case of the experiments according to the method of Oldendorf, the active materials were used in amounts of between 10 and 100 μmol. There was thereby obtained no dependency of the penetration percentage of the active material concentration, i.e. that with increasing amount of active material, the percentage passing the blood-brain barrier remained about the same. In the case of methotrexate as active material, the penetration was also investigated in the case of higher concentrations.
The penetration achieved also depends upon the amount of glycerol derivative of the general formula used. Referring to the results given in Table 1, e.g. with endoxan and the C3 additive, there was achieved a penetration of scarcely 20%, whereas with an equal amount of the C5 additive the penetration lay above 50%. However, if one increases the amount of the C3 derivative 2.5 fold, then the percentage penetrating also increases to about 50%.

As to `O=c1[nH]cc(F)c(=O)[nH]1` [5-fluorouracil], the “percentage proportion of active material which has passed the blood-brain barrier, with C5” value (shortened to “percentage proportion … with C5”) worked out at 13.0 ± 0.1% and the “percentage proportion of active material which has passed the blood-brain barrier, without” value (shortened to “percentage proportion … without”) is recorded as 3.7 ± 1.0%.

Take `CCCCCCCCCCCCCCCCCCOCC(COP(=O)([O-])OCC[N+](C)(C)C)OC` (centres unmarked) [ET 18-O-CH3]: the “percentage proportion of active material which has passed the blood-brain barrier, with C3” value (shortened to “percentage proportion … with C3”) was 16.4 ± 4.1% and the “percentage proportion … without” value was found to be 4.5 ± 0.8%.

Regarding `COc1cccc2c1C(=O)c1c(O)c3c(c(O)c1C2=O)C[C@@](O)(C(C)=O)C[C@@H]3O[C@H]1C[C@H](N)[C@H](O)[C@H](C)O1` [daunomycin], the “percentage proportion … with C5” value was found to be 76.8 ± 7.0%; the “percentage proportion … with C3” value is listed as 24.1 ± 3.3%; the “percentage proportion … without” value is on record as 10.8 ± 2.7%.

For the compound `O=P1(N(CCCl)CCCl)NCCCO1` (centres unmarked) [endoxan], the “percentage proportion … with C3” value was 18.9 ± 0.3% and ~20%; the “percentage proportion … without” value amounted to 11.4 ± 0.4%. Further, the “percentage penetrating with increased amount of the C3 derivative” value (amount of the C3 derivative increased 2.5 fold) is “about 50%”.

As to `CN(Cc1cnc2nc(N)nc(N)c2n1)c1ccc(C(=O)N[C@@H](CCC(=O)O)C(=O)O)cc1` [methotrexate], the “percentage proportion … with C5” value is recorded as 26.2 ± 5.8%; the “percentage proportion … with C3” value is on record as 5.7 ± 1.0%; the “percentage proportion … without” value was 4.7 ± 0.6%. The “proportion of active material advancing to the place of action at higher concentrations” value (higher concentrations, up to above 10 mMole) is listed as “a linear increase”. The “percentage proportion of active material passing the barrier at higher concentrations” value (up to above 10 mMole) is given as “practically the same percentage proportion of active material passing the barrier”.

On to `O=C1c2c(O)ccc(O)c2C(=O)c2c(NCCNCCO)ccc(NCCNCCO)c21` [mitoxandrone], for which the “percentage proportion … with C5” value turned out to be 25.1 ± 2.0% and the “percentage proportion … without” value amounted to 1.8 ± 0.1%.

Turning to `CC[C@]1(O)C[C@@H]2CN(CCc3c([nH]c4ccccc34)[C@@](C(=O)OC)(c3cc4c(cc3OC)N(C)[C@H]3[C@@](O)(C(=O)OC)[C@H](OC(C)=O)[C@]5(CC)C=CCN6CC[C@]43[C@@H]65)C2)C1` [vinblastine], the “percentage proportion … with C5” value amounted to 44.3 ± 6.7%; the “percentage proportion … with C3” value is recorded as 4.2 ± 0.6%; the “percentage proportion … without” value was 5.4 ± 1.7%.

With bleomycin, the “percentage proportion … with C5” value worked out at 5.7 ± 1.8% and the “percentage proportion … without” value amounted to 4.9 ± 1.4%. The “penetration improvement” value (FIG. 2, M.W. above 600) is reported as “relatively small”.

For the origin of these results see patent US5153179A, “Medicament with improved penetration of the tissue membrane” (Max-Planck-Gesellschaft zur Foerderung der Wissenschaft e.V., priority 1983, dated 1992).
